Laboratory results reported in patent US8969345B2, “Dibenzooxepin derivative” (Kyowa Hakko Kirin Co., Ltd., priority 2011, dated 2015).
pEC50: −log10 of the molar value.

Tests used:
[1] = Metabolic stability evaluation in human liver microsome; type: in vitro ADME; conditions: liver microsomes, pH 7.4; human liver microsome 0.2 mg/mL protein, test compound 1 μmol/L, β-NADPH, 37° C., 30 min; average of two samples; read-out: hCLint (converted)
Method: Human liver microsome (pool of 50 donors) was purchased from XenoTech. A reaction mixture containing phosphate buffer (100 mmol/L, pH 7.4), ethylenediamine tetraacetic acid (0.1 mmol/L), magnesium chloride (6 mmol/L), human liver microsome (0.2 mg/mL protein) and test compound (1 μmol/L) was prepared. The reaction mixture was preincubated at 37° C. for 5 min, β-NADPH (1 mmol/L) was added and the mixture was incubated at 37° C. for 30 min. The protein was removed with acetonitrile from the sample after the reaction and the sample was measured by LC-MS/MS. The ratio of the organic solvent in the reaction mixture was set to about 0.5%, and the reaction was performed in 2 samples.
The elimination rate constant (ke) was calculated from the linear regression of the logarithm plot of the residual ratio of the test compound and at 30 min after the reaction, and the liver inherent clearance (Cint) was calculated by the following formula.
[formula] ke: elimination rate constant (1/h) a: concentration (mg/mL) of liver microsome in the reaction mixture b: liver microsome amount per liver unit weight (32.3 mg/g liver) c: liver weight per unit body weight (25.7 g liver/kg body weight) Each test compound was tested in two samples, and the average thereof was calculated.

[2] = target: T1, GAL4-PPAR γ chimeric nuclear receptor (human PPAR γ ligand binding domain) (Homo sapiens, UniProt P37231); test: PPAR γ transactivation assay by transient gene transfer (GAL4-PPAR γ chimeric receptor, luciferase reporter, HEK293EBNA cells); type: cell-based; conditions: concentration showing 50% of efficacy (maximum activity rate relative to pioglitazone = 100%), 24 hr
T1 construct: expressed in transfected cells; host or cells: HEK293EBNA cells, transient transfection with SuperFect
T1 sequence (P37231 174-475 isoform P37231-2): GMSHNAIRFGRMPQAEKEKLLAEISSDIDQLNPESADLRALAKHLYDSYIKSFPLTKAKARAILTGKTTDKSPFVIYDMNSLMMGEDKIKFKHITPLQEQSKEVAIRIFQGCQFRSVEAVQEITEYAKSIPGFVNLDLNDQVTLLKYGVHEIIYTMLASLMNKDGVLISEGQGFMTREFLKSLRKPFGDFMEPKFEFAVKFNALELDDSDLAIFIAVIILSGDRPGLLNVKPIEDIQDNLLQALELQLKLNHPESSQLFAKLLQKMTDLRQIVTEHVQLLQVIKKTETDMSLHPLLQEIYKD
Method: The agonist activity of the test compound to PPAR γ was determined by a transactivation assay method using a chimeric nuclear receptor of a DNA binding region of a yeast transcription factor GAL4 and a PPAR γ ligand binding region. Specifically, the PPAR γ agonist activity of the test compound was evaluated by the following method based on the method of Lehmann et al. (J Biol. Chem., 1995, vol. 270, page 12953).
HEK293EBNA cells cultured in Dulbecco's Modified Eagle medium (Invitrogen) containing 10 v/v % fetal bovine serum (Invitrogen) were used. 30 mL of the above-mentioned cells (density: 1×10^5 cells/mL) were inoculated in a […] (Iwaki Glass), and cultured overnight. Using SuperFect Transfection Reagent (QIAGEN), a plasmid expressing a GAL4-PPAR γ chimeric nuclear receptor fusing 174-475 amino acids, which are human PPAR γ ligand binding domain, and 1-147 amino acids, which are GAL4 DNA binding domain, and a reporter plasmid expressing a GAL4 responsive luciferase were transiently introduced into the cells at a proportion of 4:1. After 5 hr from transfection, the cells were detached from the culture dish, and the detached cells (density: 2×10^4 cells/mL) were inoculated by 100 μL in each well of a 96 well white plate (SUMITOMO BAKELITE), and cultured overnight. The medium was removed, the test compound diluted in various concentrations with serum-free Dulbecco's Modified Eagle medium was added by 100 μL, and the mixture was reacted under a 5% carbon dioxide gas stream (5% CO2) at 37° C. for 24 hr. On the other hand, as a positive control, 10 μmol/L of pioglitazone (100 μL) was added, and the mixture was reacted under a 5% carbon dioxide gas stream (5% CO2) at 37° C. for 24 hr. As a substrate of luciferase, 100 μL of Steady-Glo (Promega) was added to each well and the mixture was thoroughly stirred. Immediately thereafter, the chemical luminescence due to luciferase was measured using TopCount NTX (Packard).
The agonist activity (activity rate (%)) of the test compound to PPAR γ was calculated according to the following formula, as a relative activity when the agonist activity on addition of pioglitazone ([…]) was 100%.

CLint scaled at 1 μmol/L [1] [mL/min/kg] | pEC50 [2] | SMILES
53.3 | 8.13 | CCCc1nc2ccccc2n1Cc1ccc2c(c1)COc1cc(F)ccc1/C2=C(\C)c1noc(=O)[nH]1 [Compound 1a, (E)-3-(1-{3-fluoro-8-[(2-propyl-1H-benzo[d]imidazol-1-yl)methyl]dibenzo[b,e]oxepin-11(6H)-ylidene}ethyl)-1,2,4-oxadiazol-5(4H)-one]
31.7 | 7.93 | COCc1nc2ccccc2n1Cc1ccc2c(c1)COc1cc(F)ccc1/C2=C(\C)c1noc(=O)[nH]1 [Compound 1b, (E)-3-[1-(3-fluoro-8-{[2-(methoxymethyl)-1H-benzo[d]imidazol-1-yl]methyl}dibenzo[b,e]oxepin-11(6H)-ylidene)ethyl]-1,2,4-oxadiazol-5(4H)-one]
23.3 | 8.05 | C/C(=C1/c2ccc(Cn3c(C4CC4)nc4ccccc43)cc2COc2cc(F)ccc21)c1noc(=O)[nH]1 [Compound 1d, (E)-3-(1-{8-[(2-cyclopropyl-1H-benzo[d]imidazol-1-yl)methyl]-3-fluorodibenzo[b,e]oxepin-11(6H)-ylidene}ethyl)-1,2,4-oxadiazol-5(4H)-one]
28.3 | 8.14 | C/C(=C1/c2ccc(Cn3c(C4CC(F)(F)C4)nc4ccccc43)cc2COc2cc(F)ccc21)c1noc(=O)[nH]1 [Compound 1j, (E)-3-[1-(8-{[2-(3,3-difluorocyclobutyl)-1H-benzo[d]imidazol-1-yl]methyl}-3-fluorodibenzo[b,e]oxepin-11(6H)-ylidene)ethyl]-1,2,4-oxadiazol-5(4H)-one]
7.33 | 7.34 | [2H]C([2H])([2H])Oc1cccc2c1nc(COC)n2Cc1ccc2c(c1)COc1cc(F)ccc1/C2=C(\C)c1noc(=O)[nH]1 [Compound 2a, (E)-3-[1-(3-fluoro-8-{[4-(methoxy-d3)-2-(methoxymethyl)-1H-benzo[d]imidazol-1-yl]methyl}dibenzo[b,e]oxepin-11(6H)-ylidene)ethyl]-1,2,4-oxadiazol-5(4H)-one]
26.7 | 7.23 | CCCc1nc2c(C(N)=O)cccc2n1Cc1ccc2c(c1)COc1cc(F)ccc1/C2=C(\C)c1noc(=O)[nH]1 [Compound 2b, (E)-1-({3-fluoro-11-[1-(5-oxo-4,5-dihydro-1,2,4-oxadiazol-3-yl)ethylidene]-6,11-dihydrodibenzo[b,e]oxepin-8-yl}methyl)-2-propyl-1H-benzo[d]imidazole-4-carboxamide]
9.5 | 7.64 | C/C(=C1/c2ccc(Cn3c(C4CCC4)nc4c(Cl)nccc43)cc2COc2cc(F)ccc21)c1noc(=O)[nH]1 [Compound 3b, (E)-3-(1-{8-[(4-chloro-2-cyclobutyl-1H-imidazo[4,5-c]pyridin-1-yl)methyl]-3-fluorodibenzo[b,e]oxepin-11(6H)-ylidene}ethyl)-1,2,4-oxadiazol-5(4H)-one]
21.7 | 8.07 | C/C(=C1/c2ccc(Cn3c(C4CCC4)nc4nc(F)ccc43)cc2COc2cc(F)ccc21)c1noc(=O)[nH]1 [Compound 3i, (E)-3-(1-{8-[(2-cyclobutyl-5-fluoro-1H-imidazo[4,5-b]pyridin-1-yl)methyl]-3-fluorodibenzo[b,e]oxepin-11(6H)-ylidene}ethyl)-1,2,4-oxadiazol-5(4H)-one]
31.7 | 7.47 | C/C(=C1/c2ccc(Cn3c(CN(C)C)nc4ccccc43)cc2COc2cc(F)ccc21)c1noc(=O)[nH]1 [Compound 4a, (E)-3-{1-[8-({2-[(dimethylamino)methyl]-1H-benzo[d]imidazol-1-yl}methyl)-3-fluorodibenzo[b,e]oxepin-11(6H)-ylidene]ethyl}-1,2,4-oxadiazol-5(4H)-one]
78.3 | 7.26 | CCCc1nc2ccccc2n1Cc1ccc2c(c1)COc1cc(F)ccc1/C2=C(/c1noc(=O)[nH]1)C1CC1 [Compound 4g, (E)-3-(cyclopropyl{3-fluoro-8-[(2-propyl-1H-benzo[d]imidazol-1-yl)methyl]dibenzo[b,e]oxepin-11(6H)-ylidene}methyl)-1,2,4-oxadiazol-5(4H)-one]
36.7 | 7.42 | CC/C(=C1/c2ccc(Cn3c(COC)nc4ccccc43)cc2COc2cc(F)ccc21)c1noc(=O)[nH]1 [Compound 4l, (E)-3-[1-(3-fluoro-8-{[2-(methoxymethyl)-1H-benzo[d]imidazol-1-yl]methyl}dibenzo[b,e]oxepin-11(6H)-ylidene)propyl]-1,2,4-oxadiazol-5(4H)-one]
33.3 | 7.94 | CCCc1nc2ccccc2n1Cc1ccc2c(c1)COc1cc(F)c(F)cc1/C2=C(\C)c1noc(=O)[nH]1 [Compound 6a, (E)-3-(1-{2,3-difluoro-8-[(2-propyl-1H-benzo[d]imidazol-1-yl)methyl]dibenzo[b,e]oxepin-11(6H)-ylidene}ethyl)-1,2,4-oxadiazol-5(4H)-one]
48.3 | 7.56 | CCCc1nc2ccccc2n1Cc1ccc2c(c1)COc1c(ccc(F)c1F)/C2=C(\C)c1noc(=O)[nH]1 [Compound 7a, (E)-3-(1-{3,4-difluoro-8-[(2-propyl-1H-benzo[d]imidazol-1-yl)methyl]dibenzo[b,e]oxepin-11(6H)-ylidene}ethyl)-1,2,4-oxadiazol-5(4H)-one]
36.7 | 8.38 | C/C(=C1/c2ccc(Cc3c(C4CC4)nc4c(Cl)cccn34)cc2COc2cc(F)ccc21)c1noc(=O)[nH]1 [Compound 8a, (E)-3-(1-{8-[(8-chloro-2-cyclopropylimidazo[1,2-a]pyridin-3-yl)methyl]-3-fluorodibenzo[b,e]oxepin-11(6H)-ylidene}ethyl)-1,2,4-oxadiazol-5(4H)-one]
40 | 7.56 | C/C(=C1/c2ccc(Cc3c(C4CC4)nc4ccccn34)cc2COc2cc(F)ccc21)c1noc(=O)[nH]1 [Compound 8b, (E)-3-(1-{8-[(2-cyclopropylimidazo[1,2-a]pyridin-3-yl)methyl]-3-fluorodibenzo[b,e]oxepin-11(6H)-ylidene}ethyl)-1,2,4-oxadiazol-5(4H)-one]
50 | 7.48 | C/C(=C1/c2ccc(Cc3c(C(C)C)nc4ccccn34)cc2COc2cc(F)ccc21)c1noc(=O)[nH]1 [Compound 8c, (E)-3-(1-{3-fluoro-8-[(2-isopropylimidazo[1,2-a]pyridin-3-yl)methyl]dibenzo[b,e]oxepin-11(6H)-ylidene}ethyl)-1,2,4-oxadiazol-5(4H)-one]
16.7 | 7.50 | COCc1nc2ccccn2c1Cc1ccc2c(c1)COc1cc(F)ccc1/C2=C(\C)c1noc(=O)[nH]1 [Compound 8f, (E)-3-[1-(3-fluoro8-{[2-(methoxymethyl)imidazo[1,2-a]pyridin-3-yl]methyl}dibenzo[b,e]oxepin-11(6H)-ylidene)ethyl]-1,2,4-oxadiazol-5(4H)-one]
18.3 | 7.26 | O=c1[nH]c(/C(F)=C2\c3ccc(Cc4c(C5CC5)nc5c(Cl)cccn45)cc3COc3cc(F)ccc32)no1 [Compound 8n, (Z)-3-({8-[(8-chloro-2-cyclopropylimidazo[1,2-a]pyridin-3-yl)methyl]-3-fluorodibenzo[b,e]oxepin-11(6H)-ylidene}fluoromethyl)-1,2,4-oxadiazol-5(4H)-one]
